Tests used:
Experiment in all cases: KAM-matrix competition in K562 lysate;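 on 0.001 uM KAM: median log10 fold change of treatment over DMSO control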;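 on 0.01 uM KAM: median log10 fold change of treatment over DMSO control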;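 on 0.1 uM KAM: median log10 fold change of treatment over DMSO control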;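 on 1 uM KAM: median log10 fold change of treatment over DMSO control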;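 on 10 uM KAM: median log10 fold change of treatment over DMSO control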
Type in all cases: binding
[1] = target: T1, CAMK1 (Homo sapiens, UniProt Q14012);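 on 0.001 uM KAM: median log10 fold change of treatment over DMSO control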;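 on 0.01 uM KAM: median log10 fold change of treatment over DMSO control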;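 on 0.1 uM KAM: median log10 fold change of treatment over DMSO control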;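 on 1 uM KAM: median log10 fold change of treatment over DMSO control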;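 on 10 uM KAM: median log10 fold change of treatment over DMSO control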
T1 construct: endogenous in cells; host or cells: K562
Method: (§1) Supplement 12953_2017_125_MOESM1_ESM.zip/MS_Supp Info.xlsx, sheet "KAM" | column: 10 uM KAM; 1 uM KAM; 0.1 uM KAM; 0.01 uM KAM; 0.001 uM KAM; RB50

[2] = target: T2, LRRK2 (Homo sapiens, UniProt Q5S007);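 on 0.001 uM KAM: median log10 fold change of treatment over DMSO control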;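 on 0.01 uM KAM: median log10 fold change of treatment over DMSO control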;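 on 0.1 uM KAM: median log10 fold change of treatment over DMSO control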;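 on 1 uM KAM: median log10 fold change of treatment over DMSO control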;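 on 10 uM KAM: median log10 fold change of treatment over DMSO control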
T2 construct: endogenous in cells; host or cells: K562
Method: as §1

[3] = target: T3, MAP3K5 (Homo sapiens, UniProt Q99683)
T3 construct: endogenous in cells; host or cells: K562 cell lysate
T3 sequence (Q99683 1-1374): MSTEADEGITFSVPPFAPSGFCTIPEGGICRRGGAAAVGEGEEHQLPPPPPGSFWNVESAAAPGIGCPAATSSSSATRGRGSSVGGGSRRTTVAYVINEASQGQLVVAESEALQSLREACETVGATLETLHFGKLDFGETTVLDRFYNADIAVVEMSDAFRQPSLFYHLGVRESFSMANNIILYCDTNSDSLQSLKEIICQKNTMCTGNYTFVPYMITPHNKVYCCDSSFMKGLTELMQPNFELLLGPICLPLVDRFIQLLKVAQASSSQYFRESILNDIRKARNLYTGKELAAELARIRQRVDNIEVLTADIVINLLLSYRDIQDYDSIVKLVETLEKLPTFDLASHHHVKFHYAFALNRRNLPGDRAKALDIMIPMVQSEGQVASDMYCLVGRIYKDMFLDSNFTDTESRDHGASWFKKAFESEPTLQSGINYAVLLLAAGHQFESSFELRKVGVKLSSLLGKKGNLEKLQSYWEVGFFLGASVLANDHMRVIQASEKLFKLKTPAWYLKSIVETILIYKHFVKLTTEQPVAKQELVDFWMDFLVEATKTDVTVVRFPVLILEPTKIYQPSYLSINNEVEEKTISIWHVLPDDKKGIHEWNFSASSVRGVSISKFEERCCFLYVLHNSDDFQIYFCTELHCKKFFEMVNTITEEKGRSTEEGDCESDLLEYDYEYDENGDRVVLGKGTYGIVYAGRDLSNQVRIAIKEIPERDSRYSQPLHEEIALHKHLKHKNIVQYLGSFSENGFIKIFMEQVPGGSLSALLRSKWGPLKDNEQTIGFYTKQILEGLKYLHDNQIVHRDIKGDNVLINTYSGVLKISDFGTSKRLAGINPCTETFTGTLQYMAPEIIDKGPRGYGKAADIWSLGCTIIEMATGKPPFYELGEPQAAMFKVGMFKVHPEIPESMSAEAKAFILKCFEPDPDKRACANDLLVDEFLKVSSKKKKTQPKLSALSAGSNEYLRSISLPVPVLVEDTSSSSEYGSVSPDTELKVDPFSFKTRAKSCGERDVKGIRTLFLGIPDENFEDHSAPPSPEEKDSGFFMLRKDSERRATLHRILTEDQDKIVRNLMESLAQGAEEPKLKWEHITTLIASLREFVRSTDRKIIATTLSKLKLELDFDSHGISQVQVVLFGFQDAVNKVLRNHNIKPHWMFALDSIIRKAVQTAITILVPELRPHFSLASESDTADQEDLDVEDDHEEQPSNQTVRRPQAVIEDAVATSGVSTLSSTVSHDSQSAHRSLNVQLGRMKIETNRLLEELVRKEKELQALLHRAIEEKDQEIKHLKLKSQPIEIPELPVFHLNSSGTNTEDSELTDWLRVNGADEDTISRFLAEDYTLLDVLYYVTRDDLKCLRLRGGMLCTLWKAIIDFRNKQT
Method: as §1

[4] = target: T4, MARK4 (Homo sapiens, UniProt Q96L34)
T4 construct: K562 cell pellets were thawed on ice and resuspended in cold Lysis buffer; endogenous in cells; host or cells: K562
T4 sequence (Q96L34 1-752): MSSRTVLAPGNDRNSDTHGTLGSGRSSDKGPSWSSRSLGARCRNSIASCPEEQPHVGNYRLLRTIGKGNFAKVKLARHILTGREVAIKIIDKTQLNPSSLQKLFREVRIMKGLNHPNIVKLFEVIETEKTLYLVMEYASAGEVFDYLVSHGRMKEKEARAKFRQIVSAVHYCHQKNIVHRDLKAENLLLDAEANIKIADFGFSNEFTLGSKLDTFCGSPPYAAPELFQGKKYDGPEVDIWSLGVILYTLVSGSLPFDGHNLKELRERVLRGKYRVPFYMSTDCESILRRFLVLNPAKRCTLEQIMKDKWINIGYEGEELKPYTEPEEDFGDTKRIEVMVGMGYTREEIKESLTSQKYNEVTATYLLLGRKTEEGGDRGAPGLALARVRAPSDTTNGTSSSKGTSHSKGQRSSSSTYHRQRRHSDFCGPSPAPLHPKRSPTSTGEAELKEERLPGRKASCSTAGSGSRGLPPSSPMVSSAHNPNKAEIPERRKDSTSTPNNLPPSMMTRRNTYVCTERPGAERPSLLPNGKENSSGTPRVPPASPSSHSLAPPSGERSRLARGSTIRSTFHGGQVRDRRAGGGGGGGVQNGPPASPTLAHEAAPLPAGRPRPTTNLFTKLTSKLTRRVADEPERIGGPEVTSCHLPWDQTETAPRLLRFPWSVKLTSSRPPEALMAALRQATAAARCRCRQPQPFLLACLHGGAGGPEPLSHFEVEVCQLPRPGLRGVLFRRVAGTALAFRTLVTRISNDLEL
Method: as §1

[5] = target: T5, STK16 (Homo sapiens, UniProt O75716)
T5 construct: K562 cell pellets were thawed on ice and resuspended in cold Lysis buffer; endogenous in cells; host or cells: K562
Method: as §1

[6] = KAM 0.001-10 uM, read-out: RB50 (the source's name)
[7] = read-out: RB50 (the source's name)

T1 sequence (Q14012 whole entry): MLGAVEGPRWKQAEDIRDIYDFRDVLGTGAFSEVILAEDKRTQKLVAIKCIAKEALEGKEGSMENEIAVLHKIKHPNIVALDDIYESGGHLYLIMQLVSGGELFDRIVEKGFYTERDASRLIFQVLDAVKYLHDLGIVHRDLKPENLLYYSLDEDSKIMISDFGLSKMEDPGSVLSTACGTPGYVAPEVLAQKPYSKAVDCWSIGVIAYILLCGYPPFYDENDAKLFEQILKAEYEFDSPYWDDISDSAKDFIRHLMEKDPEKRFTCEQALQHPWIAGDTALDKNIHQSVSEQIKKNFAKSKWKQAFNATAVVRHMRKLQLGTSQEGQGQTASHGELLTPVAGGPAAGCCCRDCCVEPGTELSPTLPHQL
T2 sequence (Q5S007 whole entry): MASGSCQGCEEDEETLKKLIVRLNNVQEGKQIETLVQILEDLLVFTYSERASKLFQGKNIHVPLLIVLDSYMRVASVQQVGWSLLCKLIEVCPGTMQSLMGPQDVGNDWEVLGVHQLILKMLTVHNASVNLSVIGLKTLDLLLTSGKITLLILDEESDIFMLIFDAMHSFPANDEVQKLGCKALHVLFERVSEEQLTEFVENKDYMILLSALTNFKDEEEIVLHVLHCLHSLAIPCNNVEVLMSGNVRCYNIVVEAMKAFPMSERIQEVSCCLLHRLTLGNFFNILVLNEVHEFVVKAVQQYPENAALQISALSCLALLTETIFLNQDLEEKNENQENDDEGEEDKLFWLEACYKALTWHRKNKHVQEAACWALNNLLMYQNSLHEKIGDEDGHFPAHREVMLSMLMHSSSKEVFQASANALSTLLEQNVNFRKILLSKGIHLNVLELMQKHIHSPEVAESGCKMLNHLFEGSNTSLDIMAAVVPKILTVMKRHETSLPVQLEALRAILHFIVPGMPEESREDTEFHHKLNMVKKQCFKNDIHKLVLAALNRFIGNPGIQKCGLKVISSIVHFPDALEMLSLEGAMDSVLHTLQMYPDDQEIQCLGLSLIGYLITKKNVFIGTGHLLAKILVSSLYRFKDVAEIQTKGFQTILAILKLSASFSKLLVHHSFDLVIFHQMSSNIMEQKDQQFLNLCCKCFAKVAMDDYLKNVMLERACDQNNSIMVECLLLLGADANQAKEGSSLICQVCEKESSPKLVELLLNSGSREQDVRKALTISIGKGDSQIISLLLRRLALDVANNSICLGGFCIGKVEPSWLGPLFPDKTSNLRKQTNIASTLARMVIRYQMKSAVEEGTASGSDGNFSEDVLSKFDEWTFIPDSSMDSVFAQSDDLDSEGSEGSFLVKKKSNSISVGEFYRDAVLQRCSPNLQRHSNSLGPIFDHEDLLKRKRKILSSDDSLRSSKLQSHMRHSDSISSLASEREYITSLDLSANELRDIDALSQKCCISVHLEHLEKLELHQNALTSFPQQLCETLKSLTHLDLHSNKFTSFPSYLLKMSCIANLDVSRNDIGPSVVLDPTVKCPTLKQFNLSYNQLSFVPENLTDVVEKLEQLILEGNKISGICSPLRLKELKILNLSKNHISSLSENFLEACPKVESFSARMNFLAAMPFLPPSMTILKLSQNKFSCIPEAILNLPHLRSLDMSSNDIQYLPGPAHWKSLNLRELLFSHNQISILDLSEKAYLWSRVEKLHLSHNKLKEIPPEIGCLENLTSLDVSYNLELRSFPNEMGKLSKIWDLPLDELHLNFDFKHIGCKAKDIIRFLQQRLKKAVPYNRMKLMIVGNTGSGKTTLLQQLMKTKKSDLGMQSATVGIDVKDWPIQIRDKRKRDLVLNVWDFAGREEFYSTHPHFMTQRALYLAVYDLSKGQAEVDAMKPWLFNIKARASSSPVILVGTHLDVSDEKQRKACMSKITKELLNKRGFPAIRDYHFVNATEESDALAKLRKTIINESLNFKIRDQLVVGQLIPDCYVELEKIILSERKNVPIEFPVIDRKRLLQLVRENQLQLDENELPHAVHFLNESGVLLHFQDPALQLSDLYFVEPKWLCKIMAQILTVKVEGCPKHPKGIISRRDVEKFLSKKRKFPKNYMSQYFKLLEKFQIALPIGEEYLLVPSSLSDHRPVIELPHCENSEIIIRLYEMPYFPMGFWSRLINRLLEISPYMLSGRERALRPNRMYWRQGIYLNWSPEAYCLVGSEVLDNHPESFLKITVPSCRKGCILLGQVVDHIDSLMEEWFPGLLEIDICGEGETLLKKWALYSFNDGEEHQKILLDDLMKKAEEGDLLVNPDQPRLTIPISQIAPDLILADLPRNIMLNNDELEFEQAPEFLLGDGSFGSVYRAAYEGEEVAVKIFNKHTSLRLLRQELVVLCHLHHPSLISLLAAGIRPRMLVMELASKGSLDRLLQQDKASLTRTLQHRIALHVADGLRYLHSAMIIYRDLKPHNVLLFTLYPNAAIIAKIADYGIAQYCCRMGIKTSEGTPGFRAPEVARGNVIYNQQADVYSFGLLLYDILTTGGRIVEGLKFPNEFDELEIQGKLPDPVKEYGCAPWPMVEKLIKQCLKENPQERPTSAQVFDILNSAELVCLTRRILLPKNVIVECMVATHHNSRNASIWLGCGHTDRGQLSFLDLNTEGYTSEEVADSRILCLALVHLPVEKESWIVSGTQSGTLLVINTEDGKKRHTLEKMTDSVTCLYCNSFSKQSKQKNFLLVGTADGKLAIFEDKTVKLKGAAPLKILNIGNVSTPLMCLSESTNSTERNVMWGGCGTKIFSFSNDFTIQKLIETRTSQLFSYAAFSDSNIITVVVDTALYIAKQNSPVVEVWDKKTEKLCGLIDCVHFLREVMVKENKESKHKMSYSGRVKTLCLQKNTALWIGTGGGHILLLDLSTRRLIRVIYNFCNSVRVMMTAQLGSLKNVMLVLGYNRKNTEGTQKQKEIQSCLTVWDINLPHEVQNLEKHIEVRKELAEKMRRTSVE
T5 sequence (O75716 whole entry): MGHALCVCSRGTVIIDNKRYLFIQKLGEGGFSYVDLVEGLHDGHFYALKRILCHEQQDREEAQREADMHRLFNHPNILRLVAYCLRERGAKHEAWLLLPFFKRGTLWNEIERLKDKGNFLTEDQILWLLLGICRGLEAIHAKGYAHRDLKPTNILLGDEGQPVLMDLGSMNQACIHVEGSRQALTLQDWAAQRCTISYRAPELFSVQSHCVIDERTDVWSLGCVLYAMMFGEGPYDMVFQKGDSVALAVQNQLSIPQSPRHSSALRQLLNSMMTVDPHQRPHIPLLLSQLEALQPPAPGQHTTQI

For `N#CCc1ccc(Nc2nc(NCCCN)cc(Nc3cc(C4CC4)[nH]n3)n2)cc1` [KAM], the IC50 [1, 6] was 6.47 µM, the “0.001 uM KAM” value ([1]; relative to 0 uM KAM = 0) was -0.0406 and the “0.01 uM KAM” value ([1]; relative to 0 uM KAM = 0) was 0.01937. The “0.1 uM KAM” value ([1]; relative to 0 uM KAM = 0) was -0.06624, the “1 uM KAM” value ([1]; relative to 0 uM KAM = 0) was -0.1636 and the “10 uM KAM” value ([1]; relative to 0 uM KAM = 0) was -0.3114. For the same molecule, the IC50 [2, 6] was greater than 10 µM, the “0.001 uM KAM” value ([2]; relative to 0 uM KAM = 0) was -0.05098 and the “0.01 uM KAM” value ([2]; relative to 0 uM KAM = 0) was -0.01752. For the same molecule, the “0.1 uM KAM” value ([2]; relative to 0 uM KAM = 0) was 0.02155, the “1 uM KAM” value ([2]; relative to 0 uM KAM = 0) was 0.06199 and the “10 uM KAM” value ([2]; relative to 0 uM KAM = 0) was -0.09009. The “median Log10 fold change” value ([3]; 0.001 uM KAM) was -0.02718, the “median Log10 fold change” value ([3]; 0.01 uM KAM) was -0.01436 and the “median Log10 fold change” value ([3]; 0.1 uM KAM) was -0.08414. The “median Log10 fold change” value ([3]; 1 uM KAM) was -0.1836, the “median Log10 fold change” value ([3]; 10 uM KAM) was -0.3705 and the IC50 [3, 7] was 4.18 µM. The “median Log10 fold change” value ([4]; 0.001 uM KAM) was -0.09809, the “median Log10 fold change” value ([4]; 0.01 uM KAM) was -0.06359 and the “median Log10 fold change” value ([4]; 0.1 uM KAM) was -0.2055. The “median Log10 fold change” value ([4]; 1 uM KAM) was -0.3566, the “median Log10 fold change” value ([4]; 10 uM KAM) was -0.4457 and the IC50 [4, 7] was 0.604 µM. The “median Log10 fold change” value ([5]; 0.001 uM KAM) was -0.0101, the “median Log10 fold change” value ([5]; 0.01 uM KAM) was -0.01878 and the “median Log10 fold change” value ([5]; 0.1 uM KAM) was -0.1698. For the same molecule, the “median Log10 fold change” value ([5]; 1 uM KAM) was -0.3768, the “median Log10 fold change” value ([5]; 10 uM KAM) was -0.4318 and the IC50 [5, 7] was 0.673 µM.

Source: publication PMC5513037, “Examining the influence of specificity ligands and ATP-competitive ligands on the overall effectiveness of bivalent kinase inhibitors” (Proteome Science, 2017)
